Among the data in patent US8604016B2, “Heterocyclic inhibitors of glutaminase” (Calithera Biosciences Inc., priority 2011, dated 2013) are IC50 values, retold here.

The assay concerns the target recombinant form of Glutaminase 1 (GAC) (Homo sapiens, UniProt O94925). The assay can be described thus: Recombinant Enzyme Assay (GAC coupled to GDH, NADH absorbance, no preincubation). Type of assay: biochemical. The note with it: no preincubation; read-out: GAC Delta N2 IC50 no preinc. In short, it runs like this:
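GAC (4 nM) in Tris-HCl pH 8.0 with 150 mM K2HPO4, EDTA, BSA, DTT, plus 4 units/ml GDH and 4 mM ADP, without preincubation. Absorbance at 340 nm was read kinetically for 15 min at 20° C. Slopes (mAU/min) were compared with DMSO-only and control-compound wells on the same plate.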

In the case of `O=C(CC(C(=O)O)c1ccccc1)Nc1nnc(CCCCc2nnc(NC(=O)CC(C(=O)O)c3ccccc3)s2)s1` (centres unmarked) [Compound 177], the IC50 was 1.1 µM.

For `CC(C)(C)C(=O)OCN(C(=O)Cc1ccccc1)c1nnc(CCSCCc2nnc(NC(=O)Cc3ccccc3)s2)s1` [Compound 15], the IC50 is over 50 µM.

Turning to `O=C(Nc1nnc(CCCCc2nnc(NC(=O)C(O)c3ccccc3Br)s2)s1)C(O)c1ccccc1Br` (centres unmarked) [Compound 287], the IC50 came out at 0.57 µM.

In the case of `COc1cccc(CC(=O)Nc2nnc(CCSCCc3nnc(NC(=O)Cc4cccc(OC)c4OC)s3)s2)c1OC` [Compound 259], the IC50 was determined as 0.23 µM.

In the case of `O=C(Cc1ccccc1)Nc1nnc(CCCCc2nnc(NC(=O)Cc3c(Cl)ccc(O)c3F)s2)s1` [Compound 345], the IC50 was 0.16 µM.

Consider `O=C(Nc1nnc(CCCCc2nnc(NC(=O)C3(C(F)(F)F)CC3)s2)s1)C1(C(F)(F)F)CC1` [Compound 62], for which the IC50 is over 50 µM.

Turning to `O=C(Nc1nnc(CCCCc2nnc(NC(=O)C3Cc4ccccc4O3)s2)s1)C1Cc2ccccc2O1` (centres unmarked) [Compound 51], the IC50 is 1.2 µM.

With `O=C(Nc1nnc(CCSCCc2nnc(NC(=O)C3CC4CCC3C4)s2)s1)C1CC2CCC1C2` (centres unmarked) [Compound 38], the IC50 was over 50 µM.

Regarding `CC(C(=O)Nc1nnc(CCCCc2nnc(NC(=O)C(C)c3ccccc3Cl)s2)s1)c1ccccc1Cl` (centres unmarked) [Compound 274], the IC50 was 0.75 µM.

For `O=C(CC1CCNCC1)Nc1nnc(CCCCc2nnc(NC(=O)CC3CCNCC3)s2)s1` [Compound 132], the IC50 was over 20 µM.

Regarding `O=C(Cc1ccccc1)Nc1nnc(CCSCCc2nnc(N(COC(=O)OCCCN3CCOCC3)C(=O)Cc3ccccc3)s2)s1` [Compound 27], the IC50 was over 50 µM.

On to `O=C(Cn1ccc2ccccc21)Nc1nnc(CCSCCc2nnc(NC(=O)Cn3ccc4ccccc43)s2)s1` [Compound 213], for which the IC50 was found to be 2.5 µM.

As for `CC[C@@](O)(C(=O)Nc1nnc(CCSCCc2nnc(NC(=O)[C@](O)(CC)c3ccccc3)s2)s1)c1ccccc1` [Compound 142], the IC50 was over 20 µM.

Turning to `O=C(Cc1cc2ccccc2s1)Nc1nnc(CCSCCc2nnc(NC(=O)Cc3cc4ccccc4s3)s2)s1` [Compound 207], the IC50 came to 13 µM.

In the case of `CC(C)(C)OC(=O)N1CCN(C(C(=O)Nc2nnc(CCSCCc3nnc(NC(=O)C(c4ccccc4)N4CCN(C(=O)OC(C)(C)C)CC4)s3)s2)c2ccccc2)CC1` (centres unmarked) [Compound 76], the IC50 is over 50 µM.

For the compound `COc1ccc(CC(=O)Nc2nnc(CCSCCc3nnc(NC(=O)Cc4ccc(OC)c(OC)c4)s3)s2)cc1OC` [Compound 157], the IC50 turned out to be 0.34 µM.

Turning to `CC(C(=O)Nc1nnc(CCSCCc2nnc(NC(=O)C(C)c3ccccc3Cl)s2)s1)c1ccccc1Cl` (centres unmarked) [Compound 261], the IC50 was 0.7 µM.

`CC(=O)NCC(C(=O)Nc1nnc(CCCCc2nnc(NC(=O)C(CNC(C)=O)c3ccccc3)s2)s1)c1ccccc1` (centres unmarked) [Compound 266]: the IC50 stood at 2.2 µM.

`COc1ccc2c(c1)CC(C(=O)Nc1nnc(CCCCc3nnc(NC(=O)C4Cc5cc(OC)ccc5O4)s3)s1)O2` (centres unmarked) [Compound 121]: the IC50 came out at 1.7 µM.

Consider `CC(=O)N[C@@H](C(=O)Nc1nnc(CCSCCc2nnc(NC(=O)[C@H](NC(C)=O)c3ccccc3)s2)s1)c1ccccc1` [Compound 128], for which the IC50 was 32 µM.

Regarding `CC[C@](O)(C(=O)Nc1nnc(CCSCCc2nnc(NC(=O)[C@@](O)(CC)c3ccccc3)s2)s1)c1ccccc1` [Compound 141], the IC50 amounted to 1.7 µM.

Regarding `O=C(Nc1nnc(CCSCCc2nnc(NC(=O)[C@@H](O)c3ccccc3)s2)s1)[C@@H](O)c1ccccc1` [Compound 93], the IC50 came out at 0.9 µM.

As for `O=C(Cc1ccccc1)Nc1nnc(CCCCc2nnc(NC(=O)Cc3cccnc3)s2)s1` [Compound 309], the IC50 is 0.11 µM.

With `O=C(Nc1nnc(CCCc2nnc(NC(=O)C(CO)c3ccccc3)s2)s1)C(CO)c1ccccc1` (centres unmarked) [Compound 176], the IC50 was 0.57 µM.

With `CC(C)COC(=O)Nc1nnc(CCCCc2nnc(NC(=O)Cc3ccccc3)s2)s1` [Compound 370], the IC50 is 0.28 µM.

Turning to `O=C(Cc1c(F)cccc1F)Nc1nnc(CCSCCc2nnc(NC(=O)Cc3c(F)cccc3F)s2)s1` [Compound 298], the IC50 came to 0.73 µM.

Turning to `O=C(Cc1ccccc1)Nc1nnc(CCCCc2nnc(NC(=O)Cc3ccc(F)c(O)c3F)s2)s1` [Compound 346], the IC50 is 0.12 µM.

On to `O=C(CC1CC1)Nc1nnc(CCCCc2nnc(NC(=O)CC3CC3)s2)s1` [Compound 85], for which the IC50 amounted to 1.5 µM.

Take `O=C(Nc1nnc(CCCCc2nnc(NC(=O)c3ccnn3-c3ccccc3)s2)s1)c1ccnn1-c1ccccc1` [Compound 229]: the IC50 is 3.9 µM.

For `COc1ccccc1C(C)C(=O)Nc1nnc(CCSCCc2nnc(NC(=O)C(C)c3ccccc3OC)s2)s1` (centres unmarked) [Compound 263], the IC50 was 0.32 µM.

For `O=C(CC1CCCC1)Nc1nnc(CCSCCc2nnc(NC(=O)CC3CCCC3)s2)s1` [Compound 58], the IC50 was over 50 µM.

Regarding `O=C(CC1CCCNC1)Nc1nnc(CCCCc2nnc(NC(=O)CC3CCCNC3)s2)s1` (centres unmarked) [Compound 130], the IC50 is over 20 µM.

For `NS(=O)(=O)c1ccc(CC(=O)Nc2nnc(CCCCc3nnc(NC(=O)Cc4ccc(S(N)(=O)=O)cc4)s3)s2)cc1` [Compound 198], the IC50 is 0.18 µM.

As to `O=C(Nc1nnc(CCCCc2nnc(NC(=O)C(F)(F)c3ccccc3)s2)s1)C(F)(F)c1ccccc1` [Compound 303], the IC50 is over 20 µM.

For the compound `CC(C)(C)c1ccc(CC(=O)Cc2nnc(CCCCc3nnc(NC(=O)Cc4ccc(C(C)(C)C)cc4)s3)s2)cc1` [Compound 191], the IC50 was over 20 µM.

Regarding `CS(=O)(=O)c1ccc(CC(=O)Nc2nnc(CCSCCc3nnc(NC(=O)Cc4ccc(S(C)(=O)=O)cc4)s3)s2)cc1` [Compound 182], the IC50 came to 0.58 µM.

As to `O=C(Nc1nnc(CCCCc2nnc(NC(=O)C3CC4CCC3C4)s2)s1)C1CC2CCC1C2` (centres unmarked) [Compound 55], the IC50 is over 50 µM.

Turning to `Cc1ccccc1C(C)C(=O)Nc1nnc(CCSCCc2nnc(NC(=O)C(C)c3ccccc3C)s2)s1` (centres unmarked) [Compound 262], the IC50 amounted to 0.36 µM.

With `COc1ccc(OC)c(CC(=O)Nc2nnc(CCCc3nnc(NC(=O)Cc4cc(OC)ccc4OC)s3)s2)c1` [Compound 265], the IC50 was determined as 0.27 µM.

On to `C[C@@H](O)C(=O)Nc1nnc(CCCCc2nnc(NC(=O)Cc3ccccc3)s2)s1` [Compound 322], for which the IC50 was found to be 2.8 µM.

As to `CC1(C(=O)Nc2nnc(CCCCc3nnc(NC(=O)C4(C)CCCO4)s3)s2)CCCO1` (centres unmarked) [Compound 123], the IC50 was found to be 12 µM.

Take `NC(C(=O)Nc1nnc(CCSCCc2nnc(NC(=O)C(N)C3CCCC3)s2)s1)C1CCCC1` (centres unmarked) [Compound 125]: the IC50 was over 20 µM.

On to `CC(C)(C)OC(=O)N[C@@H](C(=O)Nc1nnc(CCSCCc2nnc(NC(=O)[C@H](NC(=O)OC(C)(C)C)c3ccccc3)s2)s1)c1ccccc1` [Compound 46], for which the IC50 was over 50 µM.

As to `Nc1ccc(CC(=O)Nc2nnc(CCCCc3nnc(NC(=O)Cc4ccc(N)cc4)s3)s2)cc1` [Compound 196], the IC50 stood at 0.19 µM.

For the compound `O=C(Cc1ccccc1)Nc1nnc(CCSCCc2nnc(NC(=O)Cc3ccccn3)s2)s1` [Compound 359], the IC50 was 0.38 µM.

For `CC1(C)OCC(C(=O)Nc2nnc(CCCCc3nnc(NC(=O)C4(c5ccccc5)COC(C)(C)O4)s3)s2)(c2ccccc2)O1` (centres unmarked) [Compound 277], the IC50 was over 20 µM.

Turning to `O=C(Cc1ccccc1)Nc1ccc(CCCCc2ccc(NC(=O)Cc3ccccc3)nn2)nn1` [Compound 1038], the IC50 is 0.08 µM.
